From patent publication US6972291B2, “Method for reducing food intake” (priority 2002, dated 2005)
Counter-ions that a name gives are not always drawn. Like-named read-outs stand apart in the source and are kept apart here.

Tests used:
[1] = system: food or carbohydrate craving in patients; experiment: Low-dose naltrexone patient study: subjective naltrexone efficacy rating (zero to ten) on food or carbohydrate craving; type: in vivo, human; design: key to naltrexone efficacy rating: 0 = no benefit on craving, 10 = no food/carbohydrate craving; details: scale zero to ten
Source text: Fifty mg naltrexone tablets (REVIA) were ground, mixed with lactose and dispensed at lower doses into capsules by a compounding chemist according to standard methods in doses indicated in the following examples.
(§1) For each patient described below, the patient was given an initial dose and the dose was then tailored to the patient. The dose of naltrexone was lowered when the patient experienced side effects, including headaches, nausea and/or difficulty concentrating on complex tasks, or if naltrexone is inadequately effective at a higher dose. […] Although “final” values are provided, the study continues unless termination is indicated. The following patients, as well as additional patients are currently being studied. All patients were treated for at least two months, unless released from the study due to adverse effects that were not relieved by reducing the dosage of naltrexone.
The “rating” of naltrexone efficacy is a subjective scale of zero to ten. A value of zero means that the patient experiences no beneficial effects upon food or carbohydrate craving when taking naltrexone. A value of ten means that the patient experiences no food or carbohydrate craving after taking naltrexone, and can maintain control even when a tantalizing carbohydrate-laden treat, such as a hot buttered roll, a cookie or ice cream, is placed in front of the patient, even when the patient is hungry. For diabetics, a value of eight or greater is considered a success. In contrast, for obese, non-diabetics, a value of six or greater is considered a success because carbohydrates need to be controlled, but not as diligently controlled as with diabetics.
Of note, one patient who snacked between dinner and bedtime also had insomnia. […] Unless otherwise noted, all patients are diabetics. Patients who experienced a naltrexone efficacy rating of greater than or equal to 8 also experienced a suppression of both carbohydrate craving and any tendency to overeat, in general.

patients = experiment: Side effects of low-dose naltrexone therapy in patients; type: in vivo, human
Source text: These effects included tiredness, headache, nausea, impaired libido, diminished pleasure in daily activities and difficulty concentrating on complex tasks. Such problems nearly always occur after the first dose or a dosage increase. When they occur, the dose of naltrexone must either be lowered or naltrexone therapy must be discontinued if lower doses are ineffective.
Another side effect that some patients relate is a feeling of mental confusion that impairs concentration upon difficult tasks. Like a headache, this effect is unacceptable. For this reason, a patient typically is started on a very low dose—for example, and without limitation, 1 mg capsules—and the amount of each dose is then increased or decreased until an effective level is reached at which the patient experiences no side effects.
as §1

[2] = system: carbohydrate craving in patients; experiment: Timing of naltrexone action on carbohydrate craving in patients (onset, duration); type: in vivo, human
Procedure: Naltrexone is preferably administered to act at the time(s) of day when overeating or carbohydrate craving occurs. Naltrexone usually starts working about 3–4 hours after it is taken and continues to work for about six hours, but this timing varies from person to person. If a patient overeats only at supper, they might take a dose about 3–4 hours prior to that meal. If their problem is from after lunch until bedtime, they might take a dose after breakfast, after lunch, and before or after supper, all by trial and error, to find the optimal timing. Different amounts of naltrexone also may be administered at different times, depending on a patient's response to each dosage at each time. If the patient experiences carbohydrate cravings at all waking hours, the patient might take a slow-release (extended-release) or timed-release dose at bedtime that would ideally cover the next morning, or take a dose in the middle of the night if the patient awakens to urinate, as many do. The patient then might take additional doses upon arising, before lunch, mid-afternoon, and after supper or a slow-release dose upon arising. […] Finding what works for any given patient's particular pattern of overeating or carbohydrate craving is trial and error. If a patient's problem is only at dinner when they eat out, then they might take the naltrexone about 3–4 hours before the planned dinnertime only on such days.

[3] = system: food or carbohydrate craving in patients; experiment: Low-dose naltrexone patient study: subjective naltrexone efficacy rating (zero to ten) on food or carbohydrate craving; type: in vivo, human; details: obese person
squirrel monkeys = details: cited from earlier work
animals = details: cited from earlier work
[4] = system: eating behavior in humans; details: cited from earlier work
[5] = patients, varies from person to person

With `O=C1CC[C@@]2(O)[C@H]3Cc4ccc(O)c5c4[C@@]2(CCN3CC2CC2)[C@H]1O5` [naltrexone HCl, naltrexone hydrochloride] the naltrexone efficacy rating ([1]; Patient 1, diabetic, 207.5 lbs, 12.5 mg twice daily tailored to 1 mg three times daily) was ≥ 8, the naltrexone efficacy rating ([1]; Patient 2, diabetic, 256 lbs, 12.5 mg/d tailored to 12.5 mg four times per day) was 7 to 8 and the naltrexone efficacy rating ([1]; Patient 3, diabetic, 252 lbs, 12.5 mg when eating out tailored to 2 mg twice daily) was ≥ 8. It also gave a naltrexone efficacy rating ([1]; Patient 4, non-diabetic patient, 183 lbs, 8 mg twice daily adjusted to 25 mg three times daily) of 4, a naltrexone efficacy rating ([1]; Patient 5, diabetic, 162 lbs, 8 mg after lunch, unchanged) of 10 and a naltrexone efficacy rating ([1]; Patient 6, diabetic, 204 lbs, 6 mg twice daily tailored to 1 mg twice a day) of 10. The naltrexone efficacy rating ([1]; Patient 7, polycystic ovarian syndrome, 170 lbs, 6 mg three times daily tailored to 36 mg/d) was 8 to 9, the naltrexone efficacy rating ([1]; Patient 8, diabetic, 182 lbs, 8 mg after lunch tailored to 8 mg four times daily) was 9.5 and the naltrexone efficacy rating ([1]; Patient 9, diabetic, 106 lbs, 25 mg/d tailored to 50 mg/d, low doses not tried) was < 8. The naltrexone efficacy rating ([1]; Patient 10, diabetic, 161 lbs, 12.5 mg three times daily adjusted to 50 mg three times daily, doses less than 12.5 mg not tried) was “zero”, the naltrexone efficacy rating ([1]; Patient 11, diabetic, 183 lbs, 8 mg/d tailored to 32 mg/d) was ≥ 8 and the naltrexone efficacy rating ([1]; Patient 12, diabetic, 114 lbs, 4 mg after lunch tailored to 4.5 mg) was “zero”. The naltrexone efficacy rating ([1]; Patient 13, diabetic, 208 lbs, 5 mg three times per day tailored to 8 mg twice per day) was 8.5, the carbohydrate craving rating ([1]; Patient 14, diabetic, 226.5 lbs, 0.1 mg nine times per day adjusted to 50 mg three times daily) was “zero” and the naltrexone efficacy rating ([1]; Patient 15, diabetic, 184.25 lbs, 0.75 mg twice daily tailored to 0.25 mg twice daily) was 10. The side effects (patients; Patient 1, even at the final dosage (1 mg three times daily), discontinued treatment) was “headaches”, the side effects (patients; Patient 4, 8 mg twice daily adjusted to 25 mg three times daily, discontinued treatment) was “headaches” and the side effects (patients; Patient 12, even at the final dosage (4.5 mg), discontinued treatment) was “headaches”. The side effects (patients; Patient 15, final dose 0.25 mg twice daily) was “not at the final dose”, the side effects (patients; Patient 15, initial dose 0.75 mg twice daily) was “decreased libido, confusion, diminished animation and excessive loss of appetite” and the side effects (patients; obese person, 3 mg dose) was “no headache”. For the same compound, the side effects (patients; obese person, dose of 2 mg) was “no headache”, the side effects (patients; obese person, one 4 mg capsule) was “headache” and the side effects (patients; one patient who snacked between dinner and bedtime and had insomnia) was “made them tired”. The “time covered by one small dose” value ([2]; certain patients) was “more than 24 hours”, the “time at which efficacy is apparent” value ([2]; patients, low dose of naltrexone) was “apparent by the second day of treatment” and the “time naltrexone continues to work” value [2, 5] was “about six”. For the same compound, the “time until naltrexone starts working after it is taken” value [2, 5] was 3 to 4 h, the effect on cravings ([3]; 3 mg dose) was “cravings were curbed” and the effect on appetite ([3]; dose of 2 mg) was “appetite was unaffected”. The anorexic effect (squirrel monkeys; doses of 0.22 mg/kg) was “slight anorexic effect”, the anorexic effect (squirrel monkeys; higher doses than 0.22 mg/kg) was “the anorexic effect was greater” and the “effect on body weight” value (animals) was “reduces body weight in animals without evidence of drug tolerance”. For the same compound, the risk ([4]; DeZwaan et al. review) was “potential for liver damage”, the “effect on sweet cravings” value ([4]; humans, Yeomans II, 50 mg, compared to other food categories) was “sweet cravings were not reduced” and the “effect on binge eating” value ([4]; humans, one long-term study, 100 mg doses) was “binge eating was affected long-term”. The “effect on food intake” value ([4]; humans, single-dose studies, short-term doses of 50 mg or greater) was “affect food intake”.
